Measurements taken from the supplement of paper PMC10307832.

Assays:
Assay in all cases: relative viability (nuclei count vs DMSO), 5 days (fraction); higher = more cells survive
Selisistat + Decitabine = compound: C1CC(C2=C(C1)C3=C(N2)C=CC(=C3)Cl)C(=O)N [Selisistat] + Nc1ncn([C@H]2C[C@H](O)[C@@H](CO)O2)c(=O)n1 [Decitabine] (partner 2 µM)
Outline: (§1)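 Nuclei were stained with Hoechst during a one-step fixation (final 0.05% Triton X-100, 1% formaldehyde, 1 ug/ml Hoechst) carried out 5 days after dosing, then counted on 4× images. The cells, lung cancer lines in 1536-well plates, had been dosed by pin tool the day after seeding with one drug alone or a fixed anchor-drug dose plus five library-drug doses (not always all listed) in √10 steps. Relative viability is the nuclei count in treated wells divided by that in vehicle wells, and each value is the median of duplicate plates.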

Selisistat + Luminespib = compound: C1CC(C2=C(C1)C3=C(N2)C=CC(=C3)Cl)C(=O)N [Selisistat] + CCNC(=O)c1noc(-c2cc(C(C)C)c(O)cc2O)c1-c1ccc(CN2CCOCC2)cc1 [Luminespib] (partner 0.01 µM)
Outline: as §1

Selisistat + Phenformin = compound: C1CC(C2=C(C1)C3=C(N2)C=CC(=C3)Cl)C(=O)N [Selisistat] + N=C(N)NC(=N)NCCc1ccccc1 [Phenformin] (partner 250 µM)
Outline: as §1

Serdemetan + Linsitinib = compound: c1ccc2c(CCNc3ccc(Nc4ccncc4)cc3)c[nH]c2c1 [Serdemetan] + C[C@]1(O)C[C@@H](c2nc(-c3ccc4ccc(-c5ccccc5)nc4c3)c3c(N)nccn32)C1 [Linsitinib] (partner 1 µM)
Outline: as §1

Cell Line	relative viability (Selisistat + Decitabine; first compound 0.4 µM)	relative viability (Selisistat + Decitabine; first compound 1.265 µM)	relative viability (Selisistat + Decitabine; first compound 4 µM)	relative viability (Selisistat + Decitabine; first compound 12.65 µM)	relative viability (Selisistat + Decitabine; first compound 40 µM)	relative viability (Selisistat + Luminespib; first compound 0.4 µM)	relative viability (Selisistat + Luminespib; first compound 1.265 µM)	relative viability (Selisistat + Luminespib; first compound 4 µM)	relative viability (Selisistat + Luminespib; first compound 12.65 µM)	relative viability (Selisistat + Luminespib; first compound 40 µM)	relative viability (Selisistat + Phenformin; first compound 0.4 µM)	relative viability (Selisistat + Phenformin; first compound 1.265 µM)	relative viability (Selisistat + Phenformin; first compound 4 µM)	relative viability (Selisistat + Phenformin; first compound 12.65 µM)	relative viability (Selisistat + Phenformin; first compound 40 µM)	relative viability (Serdemetan + Linsitinib; first compound 0.04 µM)	relative viability (Serdemetan + Linsitinib; first compound 0.1265 µM)	relative viability (Serdemetan + Linsitinib; first compound 0.4 µM)	relative viability (Serdemetan + Linsitinib; first compound 1.265 µM)	relative viability (Serdemetan + Linsitinib; first compound 4 µM)
NCI-H647	0.517	0.405	0.218	0.359	0.487	0.119	0.205	0.146	0.111	0.15	0.561	0.499	0.43	0.324	0.678	1.06	1.11	1.11	0.944	0.982
NCI-H2023	0.233	0.198	0.219	0.216	0.202	0.664	0.633	0.648	0.628	0.732	0.413	0.398	0.455	0.312	0.357	0.708	0.766	0.613	0.601	0.253
NCI-H520	0.586	0.512	0.536	0.592	0.493	0.233	0.255	0.232	0.233	0.206	0.598	0.485	0.577	0.533	0.528	0.973	1.02	0.817	0.808	0.774
RERF-LC-KJ	0.806	0.601	0.593	0.61	0.614	1.24	1.02	1.27	1.09	0.956	0.5	0.412	0.399	0.338	0.362	0.869	0.851	0.857	0.745	0.727
A-427	0.578	0.575		0.655	0.637	0.882	0.729	0.881	0.977	0.949	0.261	0.383	0.266	0.255	0.327	1.06	1.04	1.07	0.883	0.576
NCI-H441	0.268	0.234	0.234	0.25	0.293	0.294	0.382	0.349	0.339	0.344	0.801	0.799	0.698	0.779	0.8	0.454	0.608	0.532	0.289	0.325
NCI-H1792	0.625	0.497		0.516	0.537	0.406	0.52		0.536	0.399	0.301	0.357		0.324	0.224	0.565	0.527	0.557	0.378	0.231
SK-LU-1	0.716	0.675	0.676	0.604	0.679	0.202	0.176	0.189	0.213	0.227	0.504	0.528	0.465	0.542	0.625	1.13	1.14	1.07	1.03	0.732
PC-3 [JPC-3]	0.834	0.837		0.818	0.794	0.784	0.68	0.6	0.687	0.657	0.488	0.481	0.48	0.487	0.48	0.92	0.972		0.919	0.985
EMC-BAC-2	1.11	0.897	0.931	0.933	0.683	1.12	1.07	1.14	1.17	1.08	0.514	0.502	0.567	0.517	0.493	0.802	0.753	0.787	0.755	0.613
LK-2	0.397	0.307	0.198	0.34	0.294	0.193	0.161	0.182	0.198	0.188	0.577	0.373	0.385	0.382	0.387	0.48	0.545	0.527	0.49	0.491
NCI-H2126	0.618	0.574	0.579	0.599	0.606	0.929	0.972	0.872	0.947	0.965	0.516	0.489	0.499	0.537	0.551	0.745	0.736	0.638	0.642	0.686
NCI-H3122	0.387	0.502		0.499	0.4	0.0986	0.102	0.1	0.115	0.088	0.406	0.367	0.294	0.369	0.371	1.09	0.946	1.05		1.07
NCI-H1975	0.396	0.423	0.346	0.373	0.365	0.147	0.301	0.168	0.131	0.337	0.419	0.422	0.366	0.41	0.382	1.01	1.04	0.974	0.985	1.19
NCI-H1944	0.506	0.402	0.441	0.452	0.465	0.743	0.58		0.653	0.615	0.209	0.201		0.196	0.214	1.23	1.17	1.06		0.6
LU99A	0.947	0.928	0.847	0.792	0.907	0.258	0.214	0.301	0.291	0.223	0.897	0.956	0.956	0.806	0.832	0.501	0.481	0.421	0.158	0.162
SW 1573	0.604	0.453	0.347	0.502	0.459	0.154	0.135	0.222	0.206	0.228	0.411	0.314	0.362	0.445	0.399	0.81	0.769	0.738	0.346	0.258
